# Entries after “also recorded” stand apart in the source; their conditions may differ.
# What was measured:
# CCR1 (Homo sapiens) = molecular target: T1, CCR1 (Homo sapiens); experiment: Equilibrium competition receptor binding assay (SPA), [125I]-CCL5 on CHO/CCR1 membranes; conditions: [125I]-CCL5 0.1 nM, CHO/CCR1 membranes, SPA; read-out: IC50 for the inhibition of CCL5 binding to CCR1
# T1 construct: expressed in transfected cells; host or cells: CHO
# Protocol: (§1) The assays were carried out on membranes from CHO transfectants expressing CCR1 or CCR5, as described previously (Severin et al., [2010]). Briefly, serial dilutions of the compounds were prepared in binding buffer (50 mM TrisHCl, pH 7.2, containing 1 mM CaCl2, 5 mM MgCl2, and 0.5% BSA). Equal volumes of membrane preparation at 80 μg/ml and scintillation proximity assay (SPA) beads were mixed before adding them to a 96 well filter plate, giving a final membrane concentration in the assay of 20 μg/ml. ^125I labeled chemokines were dissolved in binding buffer at a concentration of 0.4 nM. The assay was started by the addition of 25 μL [^125I]-CCL5 to give a concentration of 0.1 nM, in a final assay volume of 100 μL. The plates were incubated for 4 h. Radioactivity was counted with a beta counter for 1 min/well and the data analyzed using Graphpad Prism software. The radioligand was stored at −20°C and was used until the cpm of bound chemokine was ≥ 300 cpm.
# CCR1 = molecular target: T2, CCR1 (Homo sapiens, UniProt P13501); experiment: as above; conditions: relative to Molecule 1
# T2 construct: expressed in transfected cells; host or cells: CHO
# T2 sequence (P13501 24-91): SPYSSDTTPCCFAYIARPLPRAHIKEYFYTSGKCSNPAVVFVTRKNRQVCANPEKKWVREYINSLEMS
# Protocol: as §1
# [1] = tested on: CCL5-induced cellular recruitment into the peritoneal cavity; experiment: CCL5-induced peritoneal cellular recruitment; format: in vivo, mouse; conditions: CCL5 binders administered 30 min prior to CCL5 (Figure 4A, B)
# CCL5 binding to heparin = molecular target: T3, CCL5 binding to heparin (Homo sapiens, UniProt P13501); experiment: Immobilized heparin competition binding assay ([125I]-CCL5 on heparin-Sepharose beads); conditions: [125I]-CCL5 0.05 nM, 4 h, read-out: IC50 for the inhibition of CCL5 binding to heparin
# T3 sequence (P13501 24-91): T2 sequence (P13501 24-91)
# Protocol: Competition experiments were performed as described elsewhere (Severin et al., [2010]). Briefly, heparin-Sepharose beads (Sepharose beads or binding buffer as a background control) and increasing amounts of antagonist were added to each well of a 96 well filter plate. [^125I]-CCL5, was added last, to reach a final concentration of 0.05 nM. The plates were incubated on a shaker at room temperature for 4 h. Each experiment was performed in triplicate, and the results are given as the mean of the three assays.
# [2] = tested on: citrated plasma from healthy human blood donors; experiment: Anti-coagulation assay: Activated Partial Thromboplastin Time (APTT)
# Protocol: Activated Partial Thromboplastin Time (APTT) assays were performed by GlycoMar. 10 mg/ml stock solutions of NisS, StachS, and MHxS, were prepared using dH2O and stored at −20°C until use. Samples were tested at 1 mg/ml. All further dilutions were in dH2O. Prior to each assay, a calibration curve of heparin ranging from 0 to 10 IU/ml was prepared using 5th International Standard Heparin. (GlycoMar ID:92, batch 97/578, Expiry 21SEP10). Fresh human blood from healthy human blood donors was collected into S-Monovette Coagulation tubes from Sarstedt. Nine parts of freshly drawn venous blood were collected into one part trisodium citrate (0.106 M). Plasma was obtained by centrifugation at 1500 × g for 10 min. Each of the carbohydrate samples was diluted and tested at 1 mg/ml in the first instance. MHxS was subsequently tested at 0.1 mg/ml to be within the time frame of the standard curve. The APTT assay was run on an ACL 9000 Coagulation Analyzer. The coagulation time of HemosIL Normal Control (cat no. 0020003110) was checked. Samples, standards and controls were mixed 1:10 with citrated plasma in a test tube, loaded into the ACL 9000 carousel and analyzed using the extended APTT run program.
# [3] = tested on: thioglycollate-induced cellular recruitment into the peritoneal cavity; experiment: Thioglycollate-induced peritoneal cellular recruitment; format: in vivo, C3H/Hen mice; conditions: thioglycollate i.p.; compound i.p. 30 min before and 24 h later; cells counted at 48 h (Figure 4C, D)
# Protocol: CCL5-induced peritoneal recruitment was performed as described (Johnson et al., [2004]). Thioglycollate-induced cellular recruitment was mediated by the administration of 40 mL/kg of 3% thioglycollate i.p. in 7- to 8-week-old female C3H/Hen mice (JANVIER). Sham mice were injected with 40 mL/kg of NaCl (0.9%, LPS free). Saline (vehicle, control group) or Maltohexaose Sulfate at doses ranging from 1 to 0.01 mg/kg diluted in a volume ratio of 10 mL/kg and were administered i.p. 30 min before the thioglycollate stimulus, and 24 h later. An additional group of mice was injected with a single dose of 3 mg/kg dexamethasone 1 h before challenge as a reference control. Mice were sacrificed 48 h post-thioglycollate injection, the peritoneal cavity was washed twice with 5 mL of […] EDTA solution in PDB, pH 7.4. The peritoneal lavage fluid was centrifuged and resuspended in 1 mL of the solution and recruited cells were counted with a cell counter (Beckman-Coulter, ACT5Diff AD32097).
# Figure 4 Inhibition of peritoneal cellular recruitment. Cellular recruitment into the peritoneal cavity was induced by CCL5 (A) and (B) and inhibited by different doses of CCL5 binders administered 30 min prior to the CCL5 administration. […]
# [4] = tested on: paw thickness after SRBC challenge; experiment: Delayed-type hypersensitivity (DTH) model, SRBC; format: in vivo, BALB/c mice
# Protocol: Female BALB/c mice were immunized with 2 × 10^6 sheep red blood cells (SRBC) by subcutaneous route (s.c.) at the base of the tail. Five days later mice were challenged with an s.c. injection of 2 × 10^6 SRBC into the softpaw of the left hindpaw. The paw thickness was measured 21 h later and the difference calculated based on values obtained before challenge. MHxS, NisS, and StachS were injected s.c. at a dose of 10 mg/kg, 30 min before and 8 h after challenge. Vehicle was 0.02% BSA diluted in PBS. The reference compound, dexamethasone, was diluted in saline and administered by oral gavage 30 min before challenge. Group sizes were 6 for sham and 8 for all other groups.
# Figure 5 Inhibition of delayed-type hypersensitivity. Immunization was performed by s.c. administration of SRBC, followed by a challenge in the hindpaw 5 days later. The persulfated oligosaccharides (10 mg/kg) were administered 30 min prior and 8 h after the challenge. Dexamethasone was used as a positive control, and paw thickness was measured 21 h following the challenge. The statistical differences vs. the control group (mice challenged with SRBC and treated with vehicle for the compounds 0.02% BSA diluted in PBS) are shown whenever present and indicated by ^*P <0.05>; ^***P < 0.001. TEXT PRINTED IN THE PICTURE: dexamethasone: 47% *** | MHxS: 39% *** | NisS: 20% * | StachS: 41% ***
# [5] = tested on: leukocyte recruitment into the synovial (knee) cavity; experiment: Antigen-induced arthritis (AIA) model, mBSA; format: in vivo, mice; conditions: 50 μg s.c. immediately after mBSA; cells counted at 24 h
# Protocol: Induction of disease was performed by injection of 10 μg methylated bovine serum albumin (mBSA) as a 10 μL injection into the synovial cavity. Test compounds, at a total dose of 50 μg were injected in a total volume of 200 μL subcutaneously immediately after mBSA administration. Group sizes were 4–6 animals. Total leukocytes (A), neutrophils (B), and mononuclear cells (C) in the synovial cavity were enumerated 24 h after mBSA injection (Sachs et al., [2011]).
# Figure 6 Inhibition of antigen induced arthritis. An injection of mBSA into the synovial cavity was used to induce disease. 50 μg of the inhibitors were administered s.c. immediately after the mBSA injection, and the cells in the synovial cavity were enumerated 24 h later. (A) Total cells; (B) […]; (C) mononuclear cells. ^*P < 0.05.
IC50 (CCR1 (Homo sapiens)) [nM],tighter interaction than Molecule 1 in the CCR1 binding assay (CCR1) [fold],IC50 (CCL5 binding to heparin) [nM],Compound,cell recruitment to the peritoneum [1],"Anticoagulant activity (heparin-equivalent) ([2]; calibrated against heparin standard curve, samples at 1 mg/ml (MHxS 0.1 mg/ml)) [IU/mg]",anticoagulant potency reduced compared to heparin ([2]; relative to heparin) [fold],cell recruitment to the peritoneal cavity [3],reduction of paw thickness compared with dexamethasone ([4]; 10 mg/kg s.c. at −30 min and +8 h),"inhibition of paw thickness, dose-response ([4]; 0.1, 1 and 10 mg/kg at −30 min and +8 h post-challenge, data not shown)","inhibition of paw swelling ([4]; oligosaccharides 10 mg/kg s.c. at −30 min and +8 h, dexamethasone by oral gavage 30 min before challenge, paw thickness at 21 h) [%]",mononuclear cell recruitment into the knee cavity [5],neutrophil recruitment into the knee cavity [5]
2500,3,–,"O=C(CCCCCCCCCCNS(=O)(=O)c1ccc(O)c(C(=O)O)c1)Nc1cc(C(=O)O)c(O)c(S(=O)(=O)O)c1 [Molecule 3, 5-[(11-{[(3-carboxy-4hydroxyphenyl)sulfonyl]amino}undecanoyl)amino]-2-hydroxy-3-sulfobenzoic acid]","enhancement of cell recruitment; also recorded: no inhibition of recruitment, rather an enhancement at the highest dose",–,–,–,–,–,–,–,–
–,–,1270 ± 670,persulfated MHx [MHxS],–,11.87 ± 3.07,12,"enhanced recruitment, albeit moderately",comparable effect,statistically significant inhibitions were shown only for the highest dose,39,statistically significant reduction,statistically significant reduction

# From PMC3472544, “Glycosaminoglycan analogs as a novel anti-inflammatory strategy” (Frontiers in Immunology, 2012)
